Read-outs that look alike come from different tables or passages of the source.
How the values were obtained:
F508del/F508del CFTR = molecular target: T1, F508del/F508del CFTR (Homo sapiens, UniProt P13569, DEL508-508); assay: Trans-Epithelial Current Clamp (TECC) assay using primary human bronchial epithelial cells; assay type: cell-based; details: for Emax (% Dual): maximum percent activity relative to positive control (co-corrector 0.15 μM + potentiator 0.45 μM = 100%), primary hBE cells F508del/F508del; for EC50: primary hBE cells homozygous F508del/F508del, test C2 corrector with co-corrector and potentiator, 18-24 hours at 37° C., equivalent CFTR current (IEQ)/AUC
T1 construct: cells isolated from CF patients with the homozygous mutation; endogenous in cells; host or cells: primary human bronchial epithelial (hBE) cells from CF patients homozygous for F508del
T1 sequence (P13569 with tags, fused parts or gaps DEL508-508): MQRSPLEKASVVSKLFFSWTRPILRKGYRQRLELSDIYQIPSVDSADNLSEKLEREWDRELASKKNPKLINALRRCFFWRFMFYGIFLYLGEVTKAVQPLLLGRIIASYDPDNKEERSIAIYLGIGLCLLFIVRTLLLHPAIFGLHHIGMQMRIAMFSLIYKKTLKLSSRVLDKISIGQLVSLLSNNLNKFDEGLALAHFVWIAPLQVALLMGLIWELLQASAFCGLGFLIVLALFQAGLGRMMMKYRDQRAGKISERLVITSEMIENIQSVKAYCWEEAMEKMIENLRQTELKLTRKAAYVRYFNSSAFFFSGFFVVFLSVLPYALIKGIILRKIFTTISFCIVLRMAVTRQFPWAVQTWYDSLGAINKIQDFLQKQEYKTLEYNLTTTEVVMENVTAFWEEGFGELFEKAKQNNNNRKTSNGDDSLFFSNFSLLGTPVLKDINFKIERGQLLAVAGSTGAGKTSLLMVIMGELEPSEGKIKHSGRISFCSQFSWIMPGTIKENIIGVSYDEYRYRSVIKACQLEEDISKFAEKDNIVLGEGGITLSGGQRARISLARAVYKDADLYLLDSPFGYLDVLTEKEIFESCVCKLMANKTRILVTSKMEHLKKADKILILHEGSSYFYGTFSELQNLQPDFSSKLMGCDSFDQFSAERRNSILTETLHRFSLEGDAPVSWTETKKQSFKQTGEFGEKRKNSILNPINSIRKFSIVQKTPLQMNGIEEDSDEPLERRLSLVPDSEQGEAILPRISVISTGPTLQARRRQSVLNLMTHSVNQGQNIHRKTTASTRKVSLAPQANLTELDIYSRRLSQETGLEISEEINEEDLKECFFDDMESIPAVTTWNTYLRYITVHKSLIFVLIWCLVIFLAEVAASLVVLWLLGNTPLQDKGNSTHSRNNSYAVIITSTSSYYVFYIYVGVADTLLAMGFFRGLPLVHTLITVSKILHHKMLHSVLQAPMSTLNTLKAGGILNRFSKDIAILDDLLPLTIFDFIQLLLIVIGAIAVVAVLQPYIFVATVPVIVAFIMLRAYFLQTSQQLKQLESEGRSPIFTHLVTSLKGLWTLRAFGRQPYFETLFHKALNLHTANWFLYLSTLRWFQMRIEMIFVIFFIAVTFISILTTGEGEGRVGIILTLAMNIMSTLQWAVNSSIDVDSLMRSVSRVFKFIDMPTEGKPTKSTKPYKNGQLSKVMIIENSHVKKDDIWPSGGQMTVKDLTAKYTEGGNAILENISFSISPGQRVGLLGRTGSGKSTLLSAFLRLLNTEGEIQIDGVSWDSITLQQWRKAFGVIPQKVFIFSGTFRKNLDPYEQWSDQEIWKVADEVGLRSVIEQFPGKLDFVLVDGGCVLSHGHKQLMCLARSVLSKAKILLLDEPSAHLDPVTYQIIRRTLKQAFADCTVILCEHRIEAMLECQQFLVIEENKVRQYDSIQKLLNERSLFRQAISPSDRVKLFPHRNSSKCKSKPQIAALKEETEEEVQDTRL
In short: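 F508del/F508del primary hBE cells grown 35 days at air-liquid interface were treated basolaterally with C2 correctors plus fixed co-corrector and potentiator for 18-24 h at 37° C. TECC-24 current clamp at 36.5° C in HEPES-buffered F-12 Coon's, pH 7.4; equivalent current IEQ=VT/RT, plus AUC between forskolin peak and bumetanide.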

F508delCFTR = molecular target: T2, F508delCFTR (Homo sapiens, UniProt P13569, DEL508-508); assay: Cell Surface Expression-Horse Radish Peroxidase (CSE-HRP) assay in CFBE41o-F508delCFTR-HRP cells; assay type: cell-based; details: for EC50: CFBE41o-F508delCFTR-HRP cells, 18-24 hours at 33° C., luminescence; for Maximum % activity (without co-corrector) / Maximum % activity (with co-corrector): normalized to on-plate positive control corrector (2 μM)
T2 construct: expressed in transfected cells; host or cells: CFBE41o- human lung-derived epithelial cell line, doxycycline-inducible expression
T2 sequence (P13569 with tags, fused parts or gaps DEL508-508): as above
In short: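 CFBE41o- cells expressing F508delCFTR with HRP in the fourth exofacial loop were doxycycline-induced (0.5 μg/mL) for 68–72 h, then exposed to correctors for 18–24 h at 33 °C, with or without 2 μM co-corrector. Surface HRP was read by luminol luminescence, and % activity was normalized to the on-plate positive control; EC50 came from a variable-slope sigmoidal fit (8 points, 3-fold dilution, 20 or 30 μM top).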

[1] = with co-corrector (2 μM), read-out: EC50 (with co-corrector)
[2] = without co-corrector, read-out: EC50 (without co-corrector)

Row | Emax (% Dual) (F508del/F508del CFTR) | EC50 (F508del/F508del CFTR) | EC50 (F508delCFTR; [1]) | EC50 (F508delCFTR; [2]) | Maximum % activity (without co-corrector) (F508delCFTR; without co-corrector) | Maximum % activity (with co-corrector) (F508delCFTR; with co-corrector (2 μM)) | SMILES
1 | 215 % Dual | 17.5 nM | 945 nM | 1360 nM |  |  | COc1ccc(C)cc1[C@]1(C(=O)NS(=O)(=O)c2cccc3nc(C)ccc23)C[C@@H]1c1cc(F)cnc1OC [Example 84, (1S,2R)-2-(5-fluoro-2-methoxypyridin-3-yl)-1-(2-methoxy-5-methylphenyl)-N-(2-methylquinoline-5-sulfonyl)cyclopropane-1-carboxamide]
2 | 215 % Dual | 48.8 nM | 906 nM | 1270 nM | 470% |  | COc1ccc([C@@H]2C[C@]2(C(=O)NS(=O)(=O)c2cccc3nc(C)ccc23)c2cc(C)ccc2OC)cn1 [Example 33, (1R,2S)-1-(2-methoxy-5-methylphenyl)-2-(6-methoxypyridin-3-yl)-N-(2-methylquinoline-5-sulfonyl)cyclopropane-1-carboxamide]
3 | 381 % Dual | 1.1 nM |  | 1670 nM |  |  | COc1ccc([C@@H]2C[C@]2(C(=O)NS(=O)(=O)c2cccc3nc(C)ccc23)c2cc(C)ccc2OC)cc1 (racemic) [Example 9, rac-(1r,2s)-1-(2-methoxy-5-methylphenyl)-2-(4-methoxyphenyl)-N-(2-methylquinoline-5-sulfonyl)cyclopropane-1-carboxamide]
4 | 205 % Dual | 21.6 nM | 171 nM | 465 nM | 388% | 860% | COc1ccc([C@@H]2C[C@]2(C(=O)NS(=O)(=O)c2cccc3nc(C)ccc23)c2cc(C)ccc2OC)c(OC)n1 (racemic) [Example 79, rac-(1r,2s)-2-(2,6-dimethoxypyridin-3-yl)-1-(2-methoxy-5-methylphenyl)-N-(2-methylquinoline-5-sulfonyl)cyclopropane-1-carboxamide]
5 | 291 % Dual | 11.8 nM | 2600 nM | 4230 nM | 482% |  | COc1ccc(C)cc1[C@]1(C(=O)NS(=O)(=O)c2cccc3nc(C)ccc23)C[C@@H]1c1ccc(C(F)F)nc1 [Example 70, (1S,2R)-2-[6-(difluoromethyl)pyridin-3-yl]-1-(2-methoxy-5-methylphenyl)-N-(2-methylquinoline-5-sulfonyl)cyclopropane-1-carboxamide]
6 | 241 % Dual | 7.7 nM | 164 nM | 273 nM | 666% |  | COc1ccc(C)cc1[C@]1(C(=O)NS(=O)(=O)c2cccc3nc(C)ccc23)C[C@@H]1c1ccccc1C(F)(F)F (racemic) [Example 29, rac-(1r,2s)-1-(2-methoxy-5-methylphenyl)-N-(2-methylquinoline-5-sulfonyl)-2-[2-(trifluoromethyl)phenyl]cyclopropane-1-carboxamide]
7 | 364 % Dual | 30.1 nM | 1520 nM | 2350 nM | 783% |  | COc1ccc(C)cc1[C@]1(C(=O)NS(=O)(=O)c2cccc3nc(C)ccc23)C[C@@H]1c1cncc(C)n1 (single isomer, unassigned) [Example 46]
8 | 378 % Dual | 5.3 nM | 202 nM | 187 nM | 982% |  | COc1ccc(C)cc1[C@@]1(C(=O)NS(=O)(=O)c2cccc3nc(C)ccc23)C[C@H]1c1ccc(C)cc1 (single isomer, unassigned) [Example 6]
9 | 401 % Dual | 47.1 nM | 1080 nM | 1780 nM | 790% |  | COc1cnc([C@H]2C[C@@]2(C(=O)NS(=O)(=O)c2cccc3nc(C)ccc23)c2cc(C)ccc2OC)cn1 (single isomer, unassigned) [Example 48]
10 | 271 % Dual | 6.9 nM | 165 nM | 452 nM | 881% |  | COc1ccc(C)cc1[C@@]1(C(=O)NS(=O)(=O)c2cccc3nc(C)ccc23)C[C@H]1c1ccc(C(C)C)nc1OC (single isomer, unassigned) [Example 87]
11 | 286 % Dual | 2 nM | 201 nM | 583 nM |  |  | COc1ccc(C)cc1[C@@]1(C(=O)NS(=O)(=O)c2cccc3nc(C)ccc23)C[C@H]1c1cccc(C(F)(F)F)c1 (single isomer, unassigned) [Example 24]
12 | 173 % Dual | 94.4 nM | 3980 nM | 5780 nM | 476% | 876% | COc1ccc(C)cc1[C@]1(C(=O)NS(=O)(=O)c2cccc3nc(C)ccc23)C[C@@H]1c1ccc(C)nc1C [Example 81, (1S,2R)-2-(2,6-dimethylpyridin-3-yl)-1-(2-methoxy-5-methylphenyl)-N-(2-methylquinoline-5-sulfonyl)cyclopropane-1-carboxamide]
13 | 202 % Dual | 219 nM | 1810 nM | 3020 nM | 419% | 995% | COc1ncc([C@H]2C[C@@]2(C(=O)NS(=O)(=O)c2cccc3nc(C)ccc23)c2cc(C)ccc2OC)cn1 (single isomer, unassigned) [Example 38]
14 | 268 % Dual | 9 nM | 844 nM | 929 nM |  |  | COc1ccc(C)cc1[C@@]1(C(=O)NS(=O)(=O)c2cccc3nc(C)ccc23)C[C@H]1c1ccccc1F (racemic) [Example 22, rac-(1r,2r)-2-(2-fluorophenyl)-1-(2-methoxy-5-methylphenyl)-N-(2-methylquinoline-5-sulfonyl)cyclopropane-1-carboxamide]
15 | 210 % Dual | 52.2 nM | 351 nM | 730 nM | 937% |  | COc1cnc([C@H]2C[C@@]2(C(=O)NS(=O)(=O)c2cccc3nc(C)ccc23)c2cc(C)ccc2OC)c(OC)n1 [Example 82, (1S,2S)-2-(3,5-dimethoxypyrazin-2-yl)-1-(2-methoxy-5-methylphenyl)-N-(2-methylquinoline-5-sulfonyl)cyclopropane-1-carboxamide]
16 | 188 % Dual | 11.6 nM | 222 nM |  |  |  | CCOc1nc(C2C[C@@]2(C(=O)NS(=O)(=O)c2cccc3nc(C)ccc23)c2cc(C)ccc2OC)ccc1F (stereo in doubt) [Example 106, (1S,2S)-2-(6-ethoxy-5-fluoropyridin-2-yl)-1-(2-methoxy-5-methylphenyl)-N-(2-methylquinoline-5-sulfonyl)cyclopropane-1-carboxamide]
17 | 307 % Dual | 6.2 nM | 163 nM | 239 nM | 776% |  | COc1ccc(C)cc1[C@@]1(C(=O)NS(=O)(=O)c2cccc3nc(C)ccc23)C[C@H]1c1ccccc1C(F)(F)F (single isomer, unassigned) [Example 31]
18 | 206 % Dual | 24.7 nM | 810 nM | 1010 nM | 786% |  | COc1ccc(C)cc1[C@@]1(C(=O)NS(=O)(=O)c2cccc3nc(C)ccc23)C[C@H]1c1ccc(C)nc1OC (single isomer, unassigned) [Example 85]
19 | 179 % Dual | > 300 nM | 4620 nM | 6150 nM | 128% | 427% | COc1ccc(C)cc1[C@@]1(C(=O)NS(=O)(=O)c2cccc3nc(C)ccc23)C[C@H]1c1cncc(C)n1 (single isomer, unassigned) [Example 45]
20 | 305 % Dual | 4.3 nM | 388 nM | 1010 nM |  |  | COc1ccc(C)cc1[C@]1(C(=O)NS(=O)(=O)c2cccc3nc(C)ccc23)C[C@@H]1c1ccccc1F (single isomer, unassigned) [Example 25]

Row | SMILES | Emax (% Dual) (F508del/F508del CFTR) | EC50 (F508del/F508del CFTR) | EC50 (F508delCFTR; [1]) | EC50 (F508delCFTR; [2]) | Maximum % activity (without co-corrector) (F508delCFTR; without co-corrector) | Maximum % activity (with co-corrector) (F508delCFTR; with co-corrector (2 μM))
21 | COc1ccc(C)cc1[C@@]1(C(=O)NS(=O)(=O)c2cccc3nc(C)ccc23)C[C@H]1c1cccnc1OC (racemic) [Example 40, rac-(1r,2s)-1-(2-methoxy-5-methylphenyl)-2-(2-methoxypyridin-3-yl)-N-(2-methylquinoline-5-sulfonyl)cyclopropane-1-carboxamide] | 328 % Dual | 19.6 nM | 749 nM | 1550 nM | 448% | 934%
